The results in this text go back to ChEMBL document CHEMBL1201862, “PubChem BioAssay data set” (2004).

Active and inactive are the calls of the source. For most assays here, no stated cut-off is given here; in the data, actives have a measured IC50 and inactives only a lower limit.

What all share (assay type): functional
The target in one experiment is T1, Protein RecA (Mycobacterium tuberculosis, UniProt P9WHJ3).
T1 sequence (P9WHJ3 whole entry): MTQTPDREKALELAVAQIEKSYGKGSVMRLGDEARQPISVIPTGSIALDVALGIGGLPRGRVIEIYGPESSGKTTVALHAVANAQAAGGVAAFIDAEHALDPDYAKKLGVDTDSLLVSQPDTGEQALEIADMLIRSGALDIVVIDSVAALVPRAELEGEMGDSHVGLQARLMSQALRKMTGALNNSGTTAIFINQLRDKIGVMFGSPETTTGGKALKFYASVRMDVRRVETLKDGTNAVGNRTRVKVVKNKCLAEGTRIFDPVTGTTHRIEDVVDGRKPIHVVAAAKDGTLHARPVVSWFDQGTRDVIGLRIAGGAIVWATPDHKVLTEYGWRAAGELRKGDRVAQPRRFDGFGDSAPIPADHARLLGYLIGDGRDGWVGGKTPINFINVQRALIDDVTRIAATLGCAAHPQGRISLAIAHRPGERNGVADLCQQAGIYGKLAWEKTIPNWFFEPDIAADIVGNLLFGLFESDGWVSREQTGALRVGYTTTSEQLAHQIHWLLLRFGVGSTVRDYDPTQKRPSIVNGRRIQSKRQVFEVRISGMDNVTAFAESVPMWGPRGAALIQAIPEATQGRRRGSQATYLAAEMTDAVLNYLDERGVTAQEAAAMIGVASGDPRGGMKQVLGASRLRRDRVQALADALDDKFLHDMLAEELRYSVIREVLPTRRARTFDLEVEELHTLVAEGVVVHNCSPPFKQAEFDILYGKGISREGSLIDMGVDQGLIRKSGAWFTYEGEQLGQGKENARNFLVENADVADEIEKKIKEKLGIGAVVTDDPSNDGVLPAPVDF
As to the kind of experiment: Fluorescence Cell-Free Homogeneous Dose Retest to Identify Inhibitors of RecA-Intein Splicing Activity. [Related pubchem assays (depositor defined):AID2097, AID2223, AID489010, AID492950].

Experiment [1] concerns the target T2, Sentrin-specific protease 6 (Homo sapiens, UniProt Q9GZR1).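 Further: Luminescence-based dose-response confirmatory assay of SENP6 inhibition, following up an ultra-high-throughput screen.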
T2 sequence (Q9GZR1 whole entry): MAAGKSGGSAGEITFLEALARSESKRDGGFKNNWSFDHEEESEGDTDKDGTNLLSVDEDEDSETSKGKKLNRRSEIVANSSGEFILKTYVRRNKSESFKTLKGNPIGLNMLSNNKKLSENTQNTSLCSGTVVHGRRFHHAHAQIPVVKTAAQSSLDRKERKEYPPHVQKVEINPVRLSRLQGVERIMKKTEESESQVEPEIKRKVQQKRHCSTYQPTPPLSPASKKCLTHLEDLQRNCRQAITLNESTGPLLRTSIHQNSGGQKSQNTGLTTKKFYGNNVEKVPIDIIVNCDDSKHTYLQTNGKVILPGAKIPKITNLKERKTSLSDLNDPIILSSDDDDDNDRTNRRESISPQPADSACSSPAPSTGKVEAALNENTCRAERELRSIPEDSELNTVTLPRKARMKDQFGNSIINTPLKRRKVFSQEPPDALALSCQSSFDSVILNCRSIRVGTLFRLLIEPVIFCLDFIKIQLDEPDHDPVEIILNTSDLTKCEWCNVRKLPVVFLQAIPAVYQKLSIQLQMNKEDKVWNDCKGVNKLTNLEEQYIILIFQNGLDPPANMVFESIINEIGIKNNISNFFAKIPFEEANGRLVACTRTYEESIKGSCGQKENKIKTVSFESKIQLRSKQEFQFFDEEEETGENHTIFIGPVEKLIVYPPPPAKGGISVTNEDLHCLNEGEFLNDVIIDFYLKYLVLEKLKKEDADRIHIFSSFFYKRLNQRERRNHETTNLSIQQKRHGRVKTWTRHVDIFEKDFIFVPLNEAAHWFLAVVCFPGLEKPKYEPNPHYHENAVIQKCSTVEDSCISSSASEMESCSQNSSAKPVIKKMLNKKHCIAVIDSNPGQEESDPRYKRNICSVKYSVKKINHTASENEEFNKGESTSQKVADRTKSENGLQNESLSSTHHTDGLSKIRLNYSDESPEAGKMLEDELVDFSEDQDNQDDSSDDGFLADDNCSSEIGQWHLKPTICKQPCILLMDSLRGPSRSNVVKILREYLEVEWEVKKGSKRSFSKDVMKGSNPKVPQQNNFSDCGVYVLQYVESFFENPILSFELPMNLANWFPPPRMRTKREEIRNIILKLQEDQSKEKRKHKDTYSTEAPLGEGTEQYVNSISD

Experiment [2] has as its target T3, Sentrin-specific protease 7 (Homo sapiens, UniProt Q9BQF6).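 Further: Luminescence-based dose-response confirmation of ultra-high-throughput screening hits, measuring inhibition of SENP7.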
T3 sequence (Q9BQF6 whole entry): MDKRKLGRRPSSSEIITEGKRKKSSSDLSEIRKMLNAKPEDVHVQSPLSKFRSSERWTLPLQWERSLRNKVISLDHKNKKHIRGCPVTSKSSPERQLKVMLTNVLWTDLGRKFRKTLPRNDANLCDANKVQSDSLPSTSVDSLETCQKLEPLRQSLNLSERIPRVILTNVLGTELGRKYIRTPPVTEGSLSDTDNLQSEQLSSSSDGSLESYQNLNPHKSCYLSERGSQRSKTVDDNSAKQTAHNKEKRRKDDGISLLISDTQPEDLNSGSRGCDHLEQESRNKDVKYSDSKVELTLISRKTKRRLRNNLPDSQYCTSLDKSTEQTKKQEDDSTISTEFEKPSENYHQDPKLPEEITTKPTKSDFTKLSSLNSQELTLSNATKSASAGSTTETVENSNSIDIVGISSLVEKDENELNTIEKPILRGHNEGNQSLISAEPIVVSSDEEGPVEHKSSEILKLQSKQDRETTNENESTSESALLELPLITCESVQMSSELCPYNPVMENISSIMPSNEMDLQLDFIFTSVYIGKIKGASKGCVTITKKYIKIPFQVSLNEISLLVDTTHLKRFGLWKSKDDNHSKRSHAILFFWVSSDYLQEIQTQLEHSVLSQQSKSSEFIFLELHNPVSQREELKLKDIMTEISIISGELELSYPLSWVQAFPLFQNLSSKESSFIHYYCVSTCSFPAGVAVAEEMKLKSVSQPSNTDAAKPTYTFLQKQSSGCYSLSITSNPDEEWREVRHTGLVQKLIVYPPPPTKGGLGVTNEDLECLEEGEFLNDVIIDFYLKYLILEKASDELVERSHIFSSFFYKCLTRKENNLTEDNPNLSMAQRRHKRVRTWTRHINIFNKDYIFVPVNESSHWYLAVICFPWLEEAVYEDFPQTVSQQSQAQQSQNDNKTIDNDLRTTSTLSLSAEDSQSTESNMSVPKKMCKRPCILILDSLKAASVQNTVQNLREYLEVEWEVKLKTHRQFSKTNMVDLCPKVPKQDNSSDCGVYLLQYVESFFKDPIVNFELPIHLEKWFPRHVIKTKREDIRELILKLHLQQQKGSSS

By EC50 is commonly meant the midpoint of the concentration-response curve. With `O=C1C=C(N2CCCCC2)c2ccccc2C1=O`, the EC50 on Protein RecA was 1.25 µM (active).

Consider `O=C(O)C1Nc2c(O)cc(Cl)c([N+](=O)[O-])c2C2C=CCC12` (centres undefined), for which the concentration giving a half-maximal response (EC50) at Protein RecA is 11.5 µM (active).

Usually IC50 stands for the concentration that inhibits the measured activity by half. Take `Oc1ccc(N=Nc2c(O)ccc3ccccc23)cc1`: the IC50 in experiment [1] is 13 µM (active); in experiment [2], 8.49 µM (active).

Consider `Clc1ccc2nc(-c3ccc(Br)s3)cn2c1`, for which the IC50 was 12.3 µM (active) in experiment [1] and 7.91 µM (active) in experiment [2].

`O=C1N=C(NS(=O)(=O)Cc2ccccc2)S/C1=C1\C(=O)Nc2ccccc21`: the figures for the IC50 in experiment [1] and in experiment [2] were 15.7 µM (active) and 3.76 µM (active), respectively.

For the molecule `CC(=O)NC1C(=O)N(CCN2CCOCC2)c2ccc(F)cc21` (centres undefined), the 50% effective concentration (EC50) at Protein RecA is 12.1 µM (active).
